Assay results from PMC12127091, “Targeting Cancer With Bifunctional Peptides: Mechanism of Cell Entry and Inciting Cell Death” (Cancer Science, 2025).
Where a SMILES comes first, the peptide text is derived from it. [ ]: non-standard residue; d: D form.

Columns and labels:
[1] = attributed to high polarity; cited from earlier work
Excerpt: (§1) Nonetheless, introducing this peptide to human sarcoma and melanoma cell lines at 1% of their inhibitory concentrations (IC50) was described to induce mitochondrial swelling p ...

human erythrocytes = conditions: cited from earlier work
Excerpt: as §1

[2] = test system: Caki‐2, SK‐BR‐3, A‐704 and CCD18‐Co; experiment: FITC‐peptide uptake by flow cytometry; assay type: cell-based; conditions: Caki‐2 and SK‐BR‐3, 5 μM FITC‐peptide, 1 h, Figure 2a
Protocol: 7 × 10^3–10^4 cells were seeded in a 96‐well plate. On the next day, the cells were incubated with 5 μM of FITC‐conjugated peptides. The cells were harvested at different time points and measured for their fluorescence intensity using BD FACSCanto II (Becton, Dickinson and Company, Franklin Lanes, NJ, USA). Dead cells were excluded by staining the cells with 7‐AAD dye (Biolegend, San Diego, CA, USA).

SK‐BR‐3 = experiment: Plasma membrane damage (LDH leakage, Annexin V binding); assay type: cell-based; conditions: SK‐BR‐3, 8 μM peptides, Figure 5a,b
Protocol: 7 × 10^3–10^4 cells were seeded in a 96‐well plate and left to recover overnight. The cells were treated with 8 μM of peptides and were harvested at two time points. The treated cells were harvested, and the supernatants were collected.
The cells were stained with FITC Annexin V and 7‐AAD (Biolegend) in Annexin V binding buffer (Becton, Dickinson and Company). The binding of Annexin V was checked using flow cytometry.
25 μL of the supernatant was used to check the presence of active lactate dehydrogenase using the CyQUANT LDH Cytotoxicity Assay Kit (Thermo Fisher Scientific) according to the manufacturer's instructions. The absorbance was measured at 490 and 680 nm.

CC(C)C[C@H](NC(=O)[C@H](CCCCN)NC(=O)[C@H](C)NC(=O)[C@H](CC(C)C)NC(=O)[C@H](CCCCN)NC(=O)[C@H](CCCCN)NC(=O)[C@H](C)NC(=O)[C@H](CC(C)C)NC(=O)[C@H](CCCCN)NC(=O)[C@H](C)NC(=O)[C@H](CC(C)C)NC(=O)[C@@H](N)CCCCN)C(=O)N[C@@H](C)C(=O)N[C@@H](CCCCN)C(=O)O [Tox]
ability to cross the plasma membrane [1]: hardly able to cross the plasma membrane
cytotoxicity towards human erythrocytes (human erythrocytes): considerably lower cytotoxicity

CC(C)C[C@H](NC(=O)[C@H](Cc1c[nH]c2ccccc12)NC(=O)[C@@H]1CCCN1C(=O)[C@H](CO)NC(=O)[C@H](Cc1ccc(O)cc1)NC(=O)[C@@H](N)C(C)C)C(=O)N[C@H](C(=O)NCC(=O)NCC(=O)N[C@H](CCCCN)C(=O)N[C@H](CC(C)C)C(=O)N[C@H](C)C(=O)N[C@H](CCCCN)C(=O)N[C@H](CC(C)C)C(=O)N[C@H](C)C(=O)N[C@H](CCCCN)C(=O)N[C@H](CCCCN)C(=O)N[C@H](CC(C)C)C(=O)N[C@H](C)C(=O)N[C@H](CCCCN)C(=O)N[C@H](CC(C)C)C(=O)N[C@H](C)C(=O)N[C@H](CCCCN)C(=O)O)[C@@H](C)O [TP2‐D‐Tox] (H-VYSPWLTGG[dK][dL][dA][dK][dL][dA][dK][dK][dL][dA][dK][dL][dA][dK]-OH)
internalization (fluorescence intensity) of FITC‐peptides [2]: higher cell penetration
time after peptide addition at which major plasma membrane damage was detected (SK‐BR‐3): ≤ 3 h

CC(C)C[C@H](N)C(=O)N[C@H](C(=O)N[C@H](C(=O)N[C@@H](CO)C(=O)N1CCC[C@H]1C(=O)N[C@@H](Cc1c[nH]c2ccccc12)C(=O)N[C@@H](Cc1ccc(O)cc1)C(=O)NCC(=O)NCC(=O)N[C@H](CCCCN)C(=O)N[C@H](CC(C)C)C(=O)N[C@H](C)C(=O)N[C@H](CCCCN)C(=O)N[C@H](CC(C)C)C(=O)N[C@H](C)C(=O)N[C@H](CCCCN)C(=O)N[C@H](CCCCN)C(=O)N[C@H](CC(C)C)C(=O)N[C@H](C)C(=O)N[C@H](CCCCN)C(=O)N[C@H](CC(C)C)C(=O)N[C@H](C)C(=O)N[C@H](CCCCN)C(=O)O)C(C)C)[C@@H](C)O [TP‐D‐Tox] (H-LTVSPWYGG[dK][dL][dA][dK][dL][dA][dK][dK][dL][dA][dK][dL][dA][dK]-OH)
time after peptide addition at which major plasma membrane damage was detected (SK‐BR‐3): ≤ 3 h
